{"source": "patent US12410155B2", "about": "“Salt form and crystal form of tetrahydrocyclohepta indazole compound” (Zhejiang Yangli Pharmaceutical Technology Co., Ltd., priority 2021, dated 2025)", "key": {"CYP1A2": {"molecular_target": "T1, CYP1A2 (Homo sapiens, UniProt P05177)", "T1 sequence (P05177 1-516)": "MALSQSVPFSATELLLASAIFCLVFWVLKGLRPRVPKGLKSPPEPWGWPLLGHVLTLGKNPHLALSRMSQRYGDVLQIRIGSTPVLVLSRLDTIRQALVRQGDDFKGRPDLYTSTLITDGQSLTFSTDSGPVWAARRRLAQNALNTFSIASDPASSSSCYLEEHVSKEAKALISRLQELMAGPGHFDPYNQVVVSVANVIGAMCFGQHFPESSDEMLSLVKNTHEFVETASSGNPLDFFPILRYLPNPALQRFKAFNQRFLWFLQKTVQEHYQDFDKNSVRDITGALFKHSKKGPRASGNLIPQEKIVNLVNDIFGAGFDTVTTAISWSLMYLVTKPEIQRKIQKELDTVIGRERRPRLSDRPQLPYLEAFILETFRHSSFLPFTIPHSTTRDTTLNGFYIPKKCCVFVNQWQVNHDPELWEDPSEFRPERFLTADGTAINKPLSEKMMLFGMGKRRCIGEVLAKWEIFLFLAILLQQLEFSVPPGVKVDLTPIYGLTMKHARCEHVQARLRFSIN", "assay": "Inhibition of cytochrome P450 isozymes in human liver microsomes, CYP1A2", "type": "in vitro ADME", "conditions": "phenacetin substrate", "description": "(1) Study on the Inhibition of Cytochrome P450 Isozymes\nThe probe substrate, test compound, human liver microsomes, and cofactors were incubated together. The concentration of the metabolic product of the probe substrate was detected using LC-MS/MS to calculate the IC50 values. In the vehicle control samples, the test compound was replaced with an equal volume of vehicle, and the enzyme activity of the vehicle control samples was set as 100%. […]\nUpon reaching the respective reaction times for the incubation systems of the various isoenzymes, 200 μL of termination solution containing the appropriate internal standard was added to the reaction plate to terminate the reaction. […] The metabolites of the probe substrates were then analyzed using LC-MS/MS. […]\nThe activity of various CYP isoenzymes was reflected by the production rate of metabolites from each probe substrate. […] The residual activity percentage of each isoenzyme was determined by comparing the metabolite production rate of the probe substrate in the presence of different concentrations of the test compound or positive inhibitor to that of the vehicle control samples, then multiplying by 100%. […]"}, "CAMA-1 cells": {"tested_on": "CAMA-1 cells", "assay": "CAMA-1 cell proliferation inhibition assay (CTG)", "type": "cell-based", "conditions": "Homo sapiens, 1 nM estradiol", "description": "(4) MCF-7, T-47D, and CAMA-1 Cell Proliferation Inhibition Assay\nCAMA-1: EMEM (without phenol red) containing 10% charcoal-stripped serum (500 mL culture medium containing 440 mL EMEM, 50 mL charcoal-stripped serum, 5 mL NEAA, 5 mL 100 mM sodium pyruvate).\nThe inhibitory effect of the test compound of formula (I) on the proliferation of MCF-7, CAMA-1, and T-47D cells was analyzed. For MCF-7 cells, ten concentration gradients ranging from 100 nM to 0.0003815 nM were tested, with three replicates for each concentration. For CAMA-1 cells, nine concentration gradients ranging from 100 nM to 0.001526 nM were tested, also with three replicates for each concentration. For T-47D cells, nine concentration gradients ranging from 2 μM to 0.00512 nM were tested, with three replicates for each concentration. Each experiment was conducted twice independently.\nThe CAMA-1 cells were treated with starvation medium for three days, followed by trypsin digestion, centrifugation, resuspension, and counting. Cell suspensions were prepared using the corresponding culture medium, and 80 μL of the suspension was added to each well of a 96-well plate. The plate was then incubated at 37° C. in a cell incubator with 5% CO2. The test compound of formula (I) was dissolved in DMSO to an initial concentration of 20 μM and subjected to a 4-fold serial dilution to achieve nine different concentrations. After overnight incubation, the diluted compound was further diluted with the corresponding cell culture medium. The resulting mixture was transferred to the respective wells of the cell plate, starting with a final concentration of 100 nM, followed by a 4-fold serial dilution to achieve nine concentrations. The positive control wells contained 2 μM fulvestrant, and 1 nM estradiol was added to the entire plate. […]\nAfter incubation for the specified time, the cell culture plate was removed, and the CTG reagent was added. […] The readings were taken using the Envision multi-label analyzer. […]"}}}
{"smiles": "FCCCN1CC[C@H](Nc2cnc(C3=C(CC(F)(F)F)CCCc4c3ccc3[nH]nc(F)c43)cn2)C1", "note": "[Compound of formula (I)]", "values": [{"measurement": "IC50", "setting": "CYP1A2", "value": 97200, "unit": "nM"}, {"measurement": "IC50", "setting": "CAMA-1 cells; CAMA-1, First experiment", "value": 1.19, "unit": "nM"}, {"measurement": "IC50", "setting": "CAMA-1 cells; CAMA-1, Mean ± SD", "value": "1.29 ± 0.1", "unit": "nM"}, {"measurement": "IC50", "setting": "CAMA-1 cells; CAMA-1, Second experiment", "value": 1.39, "unit": "nM"}]}
